# Assays:
# [1] = tested on: S. aureus ATCC 13709 (Meth^S); experiment: Broth microdilution MIC (NCCLS); assay type: cell-based; details: Staphylococcus aureus, ATCC13709, S. aureus ATCC 13709 (Meth^S); read-out: MIC
# Method in brief: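 Following NCCLS guidance, compounds were titrated 2-fold in Mueller-Hinton broth against 5×10^5 CFU/mL inocula. After 24 h at 35° C, growth was judged by absorbance at 650 nm and by eye. The MIC was taken as the lowest concentration that stopped growth.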
# human serum proteins = experiment: Serum binding determination by ultrafiltration/HPLC; assay type: in vitro ADME; details: by HPLC
# Description: (§1) The more accurate measurement of binding of selected cephalosporin compounds was performed using HPLC as described below.
# (§2) 1. Serum is placed in a shaking water bath preheated to 37±2° C. for 5 to 10 minutes to heat serum to 37° C. Serum pH is measured and recorded, while serum is 37° C. using pH paper. Measurements are taken twice, 3 minutes apart. If the pH is not 7.4±0.4 then the pH is adjusted by blowing 5% CO2/95% O2 over the serum. After blowing for several minutes, serum is heated to 37° C. and measurements are taken twice, 3 minutes apart using pH paper to determine the pH. Store at 4° C. The serum is stable for 7 days. Always check the pH before each use.
# (§3) 2. Before any centrifugation, the centrifuge temperature must be adjusted to 25±2° C. Preheat the centrifuge by spinning for 45 minutes at the same speed to be used in the assay (1900 g) with two tubes of water in the rotor and the temperature set to 25° C. When the centrifuge stops immediately check the temperature of the tubes of water with a calibrated thermometer. The temperature of the tubes of water must be 25±2° C. […] Continue spinning and measuring the temperature and adjusting the setting until the temperature is 25±2° C.
# (§4) 3. Prepare blank ultrafiltrate by pipetting blank pH 7.4 serum into an Amicon Centrifree Micropartition devices, centrifuge: fixed angle rotor, 1900 g, 25° C. for 20 minutes. Heat ultrafiltrate in a shaking water bath preheated to 37° C. Measure ultrafiltrate pH and adjust to the pH of the serum (7.4±0.2).
# (§5) 4. Pipette 190 ul of blank ultrafiltrate into a set of labeled 1.7 mL polypropylene microfuge tubes for 3 of each level. Pipette 10 μL of the appropriate standard stock 50, 200, 1000 μg/mL to make standards 2.5, 10, and 50 μg/mL respectively. Vortex each tube well. One set of the standard samples are mixed 1:1 with 0.2 M acetic acid and injected onto the HPLC (MSTD). These samples are the membrane standards and will be used to compare to the other standards. Pipette 190 ul of ultrafiltrate and spike with 10 ul of whatever solution (e.g. water) the standards are prepared in to make the zero standard.
# (§6) 5. Pipette 475 μL of blank heated pH 7.4 serum into a set of labeled 1.7 mL polypropylene microfuge tubes for 2 of each (Serum A and Serum B). Pipette 25 μL of the 1000 μg/mL standard stock into each tube, vortex each tube well to make serum standard 50 μg/mL. Remove 100 μL of serum and deproteinate with 200 μL 4% TCA while vortexing to make serum time 0 (serum 50, T0). Place serum tubes in a shaking water bath at 37° C. for 10 minutes. Pipet 100 μL of serum out and deproteinate with 200 μL 4% TCA, to make serum time 10 min (serum 50, T10). Pipet 200 ul serum standard 50 μg/mL into an ultrafiltration device, which is not treated with TCA, to determine free drug in samples (Rat Serum 50).
# (§7) 6. Transfer serum and standard samples to labeled Amicon Centrifree Micropartition filters, and centrifuge: 1900 g, 25° C. for 10 minutes. The extracted serum samples (T0 and T10) are spun down and supernatant is loaded into HPLC vials.
# (§8) 7. 100 μL of ultrafiltrate sample and 100 μL of 0.2 M acetic acid were mixed together to stabilize the compound in ultrafiltrate.
# (§9) 8. Transfer entire stabilized ultrafiltrate solution to a labeled autoinjector HPLC vial cap with Teflon septa, and inject on HPLC.
# (§10) Peak height or area is used in a weighted linear regression.
# rhesus serum proteins = experiment: as above; assay type: in vitro ADME; details: by HPLC
# Description: as §1, §2, §3, §4, §5, §6, §7, §8, §9, §10
# rat serum proteins = experiment: as above; assay type: in vitro ADME; details: by HPLC
# Description: as §1, §2, §3, §4, §5, §6, §7, §8, §9, §10
# [2] = In vitro stability of compounds in rat serum; assay type: in vitro ADME; details: for stability of compounds in rat serum: Table 2 data; for Stability in rat serum (% loss): after 60 min exposure to rat serum, 37° C., HPLC
# Description: In general, compounds from the class of 7-acylamino-3-heteroarylthio-3-cephem carboxylic acids have higher chemical reactivity and lower stability towards chemical or enzymatic decomposition than most typical cephalosporins. […] Results shown in Table 2 represent percentage loss of the initial amount of cephalosporin compound upon 60 min incubation in rat serum.
# Procedure for measuring degree of degradation of cephalosporin compounds in rat serum was as follows:
# Fresh control rat serum (heparinized and stored frozen) is preincubated at 37° C. for 15 min in a shaking water bath. pH is measured using test strips. 25 μL of a 2 mg/mL solution cephalosporin compound (in water) of is then added to each matrix to make 1000 μL. Solutions were incubated at 37° C. 100 ul of solution was taken out at time=0, 15, 30, and 60 min post dose and added 200 μL 4% trichloroacetic acid, vortexed, and centrifuged for 10 min at 14,000 rpm in an Eppendorf microcentrifuge. 25 μL of each supernatant was injected onto HPLC. Experiment was repeated using 25 μL of a 0.2 mg/mL cephalosporin compound. Degradation is measured as the percentage of HPLC peak area at time t relative to peak area at time 0.
# HPLC conditions: Beckman Ultrasphere C18 column. 5 u. 4.6 mm×25 cm. 1 mL/min of 95% 0.1 M ammonium acetate, pH 6, 5% ACN going to 75% buffer/organic over 20 min. UV monitored at 254 and 280 nm.
Structure (SMILES),MIC [1] [µg/mL],Serum Binding human (% of compound bound to serum) (human serum proteins) [%],Serum Binding rhesus (% of compound bound to serum) (rhesus serum proteins) [%],Serum Binding rat (% of compound bound to serum) (rat serum proteins) [%],stability of compounds in rat serum [2],Stability in rat serum (% loss) [2] [%]
"NCCSCc1ncsc1SC1=C(C(=O)O)N2C(=O)[C@@H](NC(=O)/C(=N\O)c3cccc(N)n3)[C@H]2SC1 [Cmpd 23, (7R)-7-[(Z)-2-(2-aminopyrid-6-yl)-2-(hydroxyimino)acetamido]-3-[4-(2-aminoethylthiomethyl)-1,3-thiazol-5-ylthio]-3-cephem-4-carboxylic acid]",0.06,94,93,77,improved stability,19
NCCSCc1cnccc1SC1=C(C(=O)O)N2C(=O)C(NC(=O)/C(=N\O)c3csc(N)n3)C2SC1 (stereo not shown) [Cmpd 19],0.5,68,83,76,–,26
"NCCSCc1ccncc1SC1=C(C(=O)O)N2C(=O)[C@@H](NC(=O)/C(=N\O)c3nc(N)sc3Cl)[C@H]2SC1 [Cmpd 21, (7R)-7-[(Z)-2-(2-amino-5-chlorothiazol-4-yl)-2-(hydroxyimino)acetamido]-3-[4-(2-aminoethylthiomethyl)pyrid-3-ylthio]-3-cephem-4-carboxylic acid]",–,90,97,97,improved stability,3
"NCCSCc1cnccc1SC1=C(C(=O)O)N2C(=O)[C@@H](NC(=O)/C(=N\O)c3cccc(N)n3)[C@H]2SC1 [Cmpd 24, (7R)-7-[(Z)-2-(2-aminopyrid-6-yl)-2-(hydroxyimino)acetamido]-3-[3-(2-aminoethylthiomethyl)pyrid-4-ylthio]-3-cephem-4-carboxylic acid]",0.25,88,–,52,–,66
"N=C(N)NCCSCc1cnccc1SC1=C(C(=O)O)N2C(=O)[C@@H](NC(=O)/C(=N\O)c3nsc(N)n3)[C@H]2SC1 [Cmpd 25, (7R)-7-[(Z)-2-(5-amino-1,2,4-thiadiazol-3-yl)-2-(hydroxyimino)acetamido]-3-[3-(2-guanidinoethylthiomethyl)pyrid-4-ylthio]-3-cephem-4-carboxylic acid]",0.13,47,55,35,improved stability,45
"NCCSCc1ncccc1SC1=C(C(=O)O)N2C(=O)[C@@H](NC(=O)/C(=N\O)c3nsc(N)n3)[C@H]2SC1 [Cmpd 17, (7R)-7-[(Z)-2-(5-amino-1,2,4-thiadiazol-3-yl)-2-(hydroxyimino)acetamido]-3-[2-(2-aminoethylthiomethyl)pyrid-3-ylthio]-3-cephem-4-carboxylic acid]",0.25,66,81,74,improved stability,2
"NCCSCc1cnccc1SC1=C(C(=O)O)N2C(=O)[C@@H](NC(=O)/C(=N\O)c3nc(N)sc3Cl)[C@H]2SC1 [Cmpd 20, (7R)-7-[(Z)-2-(2-amino-5-chlorothiazol-4-yl)-2-(hydroxyimino)acetamido]-3-[3-(2-aminoethylthiomethyl)pyrid-4-ylthio]-3-cephem-4-carboxylic acid]",0.13,84,77,71,–,70
"NCCSCc1ncccc1SC1=C(C(=O)O)N2C(=O)[C@@H](NC(=O)/C(=N\O)c3nc(N)sc3Cl)[C@H]2SC1 [Cmpd 13, (7R)-7-[(Z)-2-(2-amino-5-chlorothiazol-4-yl)-2-(hydroxyimino)acetamido]-3-[2-(2-aminoethylthiomethyl)pyrid-3-ylthio]-3-cephem-4-carboxylic acid]",–,90,–,85,improved stability,9
"NCCSCc1cnccc1SC1=C(C(=O)O)N2C(=O)[C@@H](NC(=O)/C(=N\O)c3nsc(N)n3)[C@H]2SC1 [Cmpd 18, (7R)-7-[(Z)-2-(5-amino-1,2,4-thiadiazol-3-yl)-2-(hydroxyimino)acetamido]-3-[3-(2-aminoethylthiomethyl)pyrid-4-ylthio]-3-cephem-4-carboxylic acid]",0.13,66,67,55,–,23
"NCCSCc1nc(N)sc1SC1=C(C(=O)O)N2C(=O)[C@@H](NC(=O)/C(=N\O)c3nc(N)sc3Cl)[C@H]2SC1 [Cmpd 3, (7R)-7-[(Z)-2-(2-amino-5-chlorothiazol-4-yl)-2-(hydroxyimino)acetamido]-3-[4-(2-aminoethylthiomethyl)-2-amino-1,3-thiazol-5-ylthio]-3-cephem-4-carboxylic acid]",0.13,88,93,56,improved stability,3
"NCCSCc1nc(SCCN)sc1SC1=C(C(=O)O)N2C(=O)[C@@H](NC(=O)/C(=N\O)c3nc(N)sc3Cl)[C@H]2SC1 [Cmpd 11, (7R)-7-[(Z)-2-(2-amino-5-chlorothiazol-4-yl)-2-(hydroxyimino)acetamido]-3-[4-(2-aminoethylthiomethyl)-2-aminoethylthio-1,3-thiazol-5-ylthio]-3-cephem-4-carboxylic acid]",0.13,83,–,–,–,47
"N=C(N)NCCSCc1ncccc1SC1=C(C(=O)O)N2C(=O)[C@@H](NC(=O)/C(=N\O)c3nsc(N)n3)[C@H]2SC1 [Cmpd 14, (7R)-7-[(Z)-2-(5-amino-1,2,4-thiadiazol-3-yl)-2-(hydroxyimino)acetamido]-3-[2-(2-guanidinoethylthiomethyl)pyrid-3-ylthio]-3-cephem-4-carboxylic acid]",–,60,–,–,improved stability,10

# — patent US6723716B1, “7-acylamino-3-heteroarylthio-3-cephem carboxylic acid antibiotics and prodrugs thereof” (Essential Therapeutics, Inc., priority 1999, dated 2004)
